# Target: Human ACLY (Homo sapiens (Human), UniProt P53396)
# Assay: ACLY enzyme activity test (ADP-Glo luminescence)
# Format: biochemical
# Conditions: 37° C., 30 minutes
# Text: • Instrument: Envision (PerkinElmer, USA) • Materials: Acl—human ACLY/acly/ATP citrate lyase protein (His tag) was purchased from Sino Biological; kinase assay kit ADP-GLO (promega #V9102).
# Experimental principle: In this experiment, the ATP-dependent citrate lyase ACL catalyzes the conversion of citrate to acetyl coenzyme A, which in turn produces malonyl coenzyme A, a precursor molecule for fatty acid synthesis, and this reaction is accompanied by ATP depletion, so the change in ATP can be detected using the ADP-Glo Kinase Assay (#V9102) to indirectly reflect the inhibitory effect of the compound on the enzymatic activity of ACL. This kinase detection kit can quantitatively determine the amount of ADP catalyzed by ACLY enzyme activity. (First, the compound, the enzyme and the substrate are incubated at 37 degrees for half an hour, ADP-Glo& #V9102; reagent is added and incubated for half an hour to terminate the reaction and consume the remaining ATP; then the kinase detection reagent is added (which converts the ADP to ATP while also detecting the newly synthesized ATP using the coupled […] reaction) and incubated for half an hour. The value is read by using Envision.
# Experimental method: ADP Glo luminescence method was used for determination. It reflects the activity of ACLY enzyme by quantitatively detecting the amount of ADP, and the enzymatic reaction catalyzed by ACLY is proportional to the amount of ADP detected by the luminescent signal. Firstly, the compound is diluted with 10% DMSO, and then […] of compound dilution is added to a 5 μl reaction system, so that the final reaction system has a DMSO content of 2%. The enzymatic reaction catalyzed by ACLY was carried out at 37° C. for 30 minutes. 5 μl reaction mixture contained the following components: 40 mM Tris, pH 8.0, 10 mM MgCl2, 5 mM DTT, ATP, CoA, sodium citrate, and ACLY. After the enzymatic reaction was complete, 2.5 μl of ADP Glo reagent was added to each reaction system and incubated at room temperature for 1 hour. Afterwards, 5 μl of kinase detection reagent was added and incubated at room temperature for 30 minutes. The luminous signal was detected using Envision (PerkinElmer, USA).
# Data processing: For compound, the activity dose dependent relationship was tested. IC50 value was obtained by non-linear fitting of sample concentration based on sample activity. The software used for calculation was Graphpad Prism 7, and the model used for fitting was sigmoid dose response (variable slope). For most inhibitor screening models, the bottom and top of the fitting curve were set to 0 and 100. In general, each sample is set with multiple wells (n≥2) during testing, which are represented in the results as Standard Deviation (SD) or Standard Error (SE).
# Human ACLY, sequence (P53396 whole entry): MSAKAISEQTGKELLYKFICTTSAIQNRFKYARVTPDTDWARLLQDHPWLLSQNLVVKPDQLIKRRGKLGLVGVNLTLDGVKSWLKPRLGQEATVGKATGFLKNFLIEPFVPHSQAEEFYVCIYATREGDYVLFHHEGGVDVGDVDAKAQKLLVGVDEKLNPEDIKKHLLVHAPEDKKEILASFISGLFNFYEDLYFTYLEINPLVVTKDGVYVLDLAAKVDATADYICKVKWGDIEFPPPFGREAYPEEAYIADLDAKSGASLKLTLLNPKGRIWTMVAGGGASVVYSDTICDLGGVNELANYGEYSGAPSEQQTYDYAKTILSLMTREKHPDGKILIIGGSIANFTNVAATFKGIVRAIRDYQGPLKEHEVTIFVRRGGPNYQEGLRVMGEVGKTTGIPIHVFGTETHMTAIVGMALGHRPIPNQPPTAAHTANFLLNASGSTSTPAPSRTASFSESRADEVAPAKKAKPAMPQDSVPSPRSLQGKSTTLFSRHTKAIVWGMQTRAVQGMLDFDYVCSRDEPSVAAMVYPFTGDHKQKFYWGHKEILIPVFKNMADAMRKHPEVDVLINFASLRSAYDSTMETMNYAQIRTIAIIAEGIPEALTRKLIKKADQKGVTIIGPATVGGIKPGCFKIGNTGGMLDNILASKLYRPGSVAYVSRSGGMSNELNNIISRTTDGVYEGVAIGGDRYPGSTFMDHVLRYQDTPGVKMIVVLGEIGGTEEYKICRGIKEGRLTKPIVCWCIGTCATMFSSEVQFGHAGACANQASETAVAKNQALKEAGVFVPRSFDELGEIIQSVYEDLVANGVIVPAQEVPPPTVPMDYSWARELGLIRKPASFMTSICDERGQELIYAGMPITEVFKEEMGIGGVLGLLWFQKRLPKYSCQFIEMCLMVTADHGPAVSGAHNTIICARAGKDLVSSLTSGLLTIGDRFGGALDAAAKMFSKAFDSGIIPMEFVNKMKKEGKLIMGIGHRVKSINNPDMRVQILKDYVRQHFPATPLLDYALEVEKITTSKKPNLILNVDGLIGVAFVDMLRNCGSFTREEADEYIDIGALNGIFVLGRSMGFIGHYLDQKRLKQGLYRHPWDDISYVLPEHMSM
row,SMILES,IC50 [µM]
1,O=C(O)C1(CCCCCC/C=C\CCCCCCC2(C(=O)OCCc3ccccc3F)C=CCC2)C=CCC1 (stereo not shown) [Compound M23],3.3 ± 0.72
2,O=C(O)C1(CCCCCC/C=C\CCCCCCC2(C(=O)O)CCCC2)CCCC1 [Compound M4],22.6 ± 2.7
3,O=C(O)C1(CCCCCCC(=C(CCCCCCC2(C(=O)O)C=CCC2)c2ccccc2)c2ccccc2)C=CCC1 (stereo not shown) [Compound M35],0.9 ± 0.1
4,O=C(O)C1(CCCCCC/C=C\CCCCCCCC2(C(=O)O)CC=CCC2)CC=CCC1 (stereo not shown) [Compound M12],3.9 ± 0.2
5,O=C(O)C1(CCCCCC/C=C\CCCCCCCC2(C(=O)O)CC=CC2)CC=CC1 [Compound M3],1 ± 0.13
6,O=C(O)C1(CCCCCC/C=C\CCCCCCC2(C(=O)OCCc3ccccc3)C=CCC2)C=CCC1 (stereo not shown) [Compound M27],7.7 ± 0.39
7,O=C(O)C1(CCCCC/C=C\CCCCCCC2(C(=O)O)C=CCC2)C=CCC1 (stereo not shown) [Compound M14],7 ± 0.16
8,O=C(O)C1(CCCCCC/C=C\CCCCCCC2(C(=O)OCCCc3ccc(Cl)cc3Cl)C=CCC2)C=CCC1 (stereo not shown) [Compound M28],17 ± 2.5

# Further lines, results first:
row,IC50 [µM],SMILES
1,19.9 ± 7.8,O=C(O)C1(CCCCCC/C=C\CCCCCCC2(C(=O)OCCc3ccc(Cl)cc3)C=CCC2)C=CCC1 (stereo not shown) [Compound M30]
2,2.9 ± 0.95,O=C(O)C1(CCCCCC/C=C\CCCCCCC2(C(=O)O)CC=CC2)CC=CC1 [Compound M2]
3,4.57 ± 0.41,CC(C)(CCCCCCC=C(CCCCCCC(C)(C)C(=O)O)c1ccc(C(=O)N2CCN(c3ccccn3)CC2)cc1)C(=O)O [Compound M36]
4,5.21 ± 0.27,CC(C)(CCCCCC/C=C(/CCCCCCC(C)(C)C(=O)O)c1ccc(C(=O)N2CCN(c3ccccn3)CC2)cc1)C(=O)O [Compound M37]
5,3.3 ± 0.45,CC[C@H](C)n1cc(C)c2c(C(=O)NCc3c(C)cc(C)[nH]c3=O)cc(-c3ccc(N4CCN(C(=O)CCCSC(=O)C(C)(C)CCCCC/C=C\CCCCCC(C)(C)C(=O)O)CC4)nc3)cc21 [Compound M33]
6,4.1 ± 1.7,C=CC(C)(CCCCCC/C=C\CCCCCCC(C)(C=C)C(=O)O)C(=O)O (stereo not shown) [Compound M7]
7,10.2 ± 0.3,Cc1ncsc1-c1ccc([C@H](C)NC(=O)[C@@H]2C[C@@H](O)CN2C(=O)[C@@H](NC(=O)C(C)(C)CCCCCC/C=C\CCCCCCC(C)(C)C(=O)O)C(C)(C)C)cc1 [Compound M34]
8,1.9 ± 0.31,CC(CCCCCC/C=C\CCCCCCCC(C)(C(=O)O)c1ccccc1)(C(=O)O)c1ccccc1 (stereo not shown) [Compound M11]
